Assay results: US20250243180A1, “TARGETED PROTEIN DEGRADATION” (Monte Rosa Therapeutics AG, priority 2023, published 2025)
pEC50: −log10 of the molar value. Where two headings read alike, the source gives them in different places.

Experiments:
[1] = target: NEK7 (Homo sapiens (Human), UniProt Q8TDX7+Q96SW2); assay: NEK7 NanoBiT degradation assay in Cal51 NEK7 NanoBiT cell line; assay type: cell-based; conditions: Cal51 NEK7 NanoBiT cells, 24 hours; for Dmax: CAL-51
Summary of the method: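 Cal51 cells with CRISPR knock-in HiBiT-tagged endogenous NEK7 plus stable LgBiT, in live-cell Endurazine medium, seeded 16 h before dosing. Compounds at final 1 μM to 0.05 nM for 24 h at 37 °C, then luminescence read. Response normalized to plate controls and fitted with a 4-parameter logistic giving EC50.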

[2] = target: CRBN-DDB1 (Homo sapiens (Human), UniProt Q96SW2); assay: Compound binding to CRBN by HTRF assay
CRBN-DDB1, sequence (Q96SW2 whole entry): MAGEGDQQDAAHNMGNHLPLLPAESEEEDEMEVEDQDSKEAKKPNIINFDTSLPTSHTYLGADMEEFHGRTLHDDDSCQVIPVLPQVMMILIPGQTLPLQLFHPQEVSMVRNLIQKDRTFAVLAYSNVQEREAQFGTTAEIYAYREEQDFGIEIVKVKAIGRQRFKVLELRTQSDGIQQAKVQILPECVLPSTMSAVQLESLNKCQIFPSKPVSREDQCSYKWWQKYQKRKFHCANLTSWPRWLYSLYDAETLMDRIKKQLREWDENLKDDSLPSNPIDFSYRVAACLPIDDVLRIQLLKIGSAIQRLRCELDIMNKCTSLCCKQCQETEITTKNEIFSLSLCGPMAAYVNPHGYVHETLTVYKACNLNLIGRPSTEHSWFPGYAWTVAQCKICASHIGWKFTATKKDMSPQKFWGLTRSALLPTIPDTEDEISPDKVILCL
CRBN-DDB1, sequence (Q16531 whole entry partner): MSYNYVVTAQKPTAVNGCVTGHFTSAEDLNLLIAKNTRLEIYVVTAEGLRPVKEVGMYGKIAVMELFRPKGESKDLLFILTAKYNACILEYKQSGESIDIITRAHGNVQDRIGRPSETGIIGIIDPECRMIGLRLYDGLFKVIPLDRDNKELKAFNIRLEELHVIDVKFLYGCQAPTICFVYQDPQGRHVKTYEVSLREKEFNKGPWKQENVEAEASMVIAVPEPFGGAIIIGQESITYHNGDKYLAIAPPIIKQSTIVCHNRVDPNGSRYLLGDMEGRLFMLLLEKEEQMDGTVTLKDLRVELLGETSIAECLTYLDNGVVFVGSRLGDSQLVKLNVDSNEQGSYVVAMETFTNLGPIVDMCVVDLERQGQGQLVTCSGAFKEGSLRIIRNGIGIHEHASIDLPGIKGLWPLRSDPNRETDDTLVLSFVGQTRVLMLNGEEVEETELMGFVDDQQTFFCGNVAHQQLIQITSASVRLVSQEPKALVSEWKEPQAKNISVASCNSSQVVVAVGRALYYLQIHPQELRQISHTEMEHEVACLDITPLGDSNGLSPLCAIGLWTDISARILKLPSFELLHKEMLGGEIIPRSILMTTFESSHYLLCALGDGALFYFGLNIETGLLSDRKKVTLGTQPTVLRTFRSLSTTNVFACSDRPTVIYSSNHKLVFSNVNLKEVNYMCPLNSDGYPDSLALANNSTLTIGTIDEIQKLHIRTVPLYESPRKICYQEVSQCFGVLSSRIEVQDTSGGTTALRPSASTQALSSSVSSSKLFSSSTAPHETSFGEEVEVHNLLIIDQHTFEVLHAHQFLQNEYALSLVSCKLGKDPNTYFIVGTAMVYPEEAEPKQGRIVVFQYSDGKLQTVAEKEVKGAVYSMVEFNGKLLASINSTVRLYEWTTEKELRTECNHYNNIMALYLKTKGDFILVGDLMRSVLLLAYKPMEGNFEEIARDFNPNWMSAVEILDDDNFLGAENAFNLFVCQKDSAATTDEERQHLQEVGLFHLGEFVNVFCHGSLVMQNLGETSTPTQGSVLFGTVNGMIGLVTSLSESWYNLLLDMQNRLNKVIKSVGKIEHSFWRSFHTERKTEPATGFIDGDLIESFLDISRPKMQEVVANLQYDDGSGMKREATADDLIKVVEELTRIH
Summary of the method: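 HTRF displacement of Cy5-thalidomide probe (100 nM) from His-tagged CRBN-DDB1 (2.5 nM) with anti-His terbium cryptate, in HEPES/NaCl/TCEP/EDTA/Tween20 buffer; 11-point 1:3 dilution series, 30 min at ambient temperature. Signal (665/620 nm) normalized to lenalidomide and DMSO controls; EC50 fitted, Ki by Cheng-Prusoff from geometric mean EC50.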

[3] = NEK7 degradation, read-out: NanoBiT Dmax
[4] = NEK7 degradation, read-out: NanoBiT DC50

NEK7, sequence (Q8TDX7 whole entry): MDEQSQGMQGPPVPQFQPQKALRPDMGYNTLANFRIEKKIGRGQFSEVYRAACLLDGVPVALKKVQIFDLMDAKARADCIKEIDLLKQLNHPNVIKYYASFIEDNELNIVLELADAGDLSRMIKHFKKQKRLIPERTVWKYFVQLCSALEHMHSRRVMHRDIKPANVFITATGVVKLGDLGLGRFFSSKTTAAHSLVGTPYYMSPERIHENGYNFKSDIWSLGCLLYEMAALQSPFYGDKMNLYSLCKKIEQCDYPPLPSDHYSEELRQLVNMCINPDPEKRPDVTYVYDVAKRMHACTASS
NEK7, sequence (Q96SW2 whole entry): as the sequence (Q96SW2 whole entry) above
NEK7, sequence (Q16531 2-1140 partner): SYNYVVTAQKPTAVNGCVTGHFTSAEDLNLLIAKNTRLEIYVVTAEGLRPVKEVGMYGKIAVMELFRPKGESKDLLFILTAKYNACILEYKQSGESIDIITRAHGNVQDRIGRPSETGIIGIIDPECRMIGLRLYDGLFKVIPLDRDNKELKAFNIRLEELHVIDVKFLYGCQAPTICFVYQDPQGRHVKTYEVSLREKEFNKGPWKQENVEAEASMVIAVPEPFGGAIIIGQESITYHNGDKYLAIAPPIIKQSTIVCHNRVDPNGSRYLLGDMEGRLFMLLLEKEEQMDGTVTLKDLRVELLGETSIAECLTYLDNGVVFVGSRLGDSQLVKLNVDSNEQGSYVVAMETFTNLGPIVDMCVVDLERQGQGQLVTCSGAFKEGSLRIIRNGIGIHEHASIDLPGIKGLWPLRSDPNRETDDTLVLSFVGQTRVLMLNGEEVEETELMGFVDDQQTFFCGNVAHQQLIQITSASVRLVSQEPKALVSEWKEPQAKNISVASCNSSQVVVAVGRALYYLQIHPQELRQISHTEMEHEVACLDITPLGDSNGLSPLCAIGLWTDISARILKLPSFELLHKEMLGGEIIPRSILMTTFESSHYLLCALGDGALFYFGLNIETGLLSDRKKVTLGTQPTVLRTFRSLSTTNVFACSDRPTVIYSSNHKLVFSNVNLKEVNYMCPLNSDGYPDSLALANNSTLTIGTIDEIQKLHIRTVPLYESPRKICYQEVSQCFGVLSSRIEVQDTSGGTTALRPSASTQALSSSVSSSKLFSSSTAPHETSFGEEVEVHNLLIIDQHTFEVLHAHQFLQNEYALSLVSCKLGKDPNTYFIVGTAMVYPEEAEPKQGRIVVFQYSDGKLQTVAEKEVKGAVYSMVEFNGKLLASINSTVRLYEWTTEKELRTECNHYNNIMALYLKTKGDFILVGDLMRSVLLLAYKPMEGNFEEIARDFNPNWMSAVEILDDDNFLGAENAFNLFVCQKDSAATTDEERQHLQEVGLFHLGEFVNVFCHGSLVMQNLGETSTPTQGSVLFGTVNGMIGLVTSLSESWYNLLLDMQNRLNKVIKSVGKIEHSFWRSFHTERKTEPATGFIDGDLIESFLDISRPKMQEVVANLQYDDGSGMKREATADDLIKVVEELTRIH

| SMILES | Dmax ([1]; read-out: NEK7 NanoBiT Dmax) [%] | Dmax [1, 3] [%] | DC50 ([1]; read-out: NEK7 NanoBiT DC50) [µM] | DC50 [1, 4] [µM] | pEC50 [2] | pEC50 ([2]; HTRF class, Cereblon binding) |
| --- | --- | --- | --- | --- | --- | --- |
| Cc1cnc(C(C)(CO)C(=O)NCc2cc(Cl)c(C3CCC(=O)NC3=O)c(Cl)c2)nc1 (stereo not drawn) [Compound 241, N-(3,5-dichloro-4-(2,6-dioxopiperidin-3-yl)benzyl)-3-hydroxy-2-methyl-2-(5-methylpyrimidin-2-yl)propanamide] | 86 | > 75 | 0.015 | ≤ 0.1 | 6.85 | 6.00 to 7.00 |
| CC(C)(C(=O)NCc1cc(Cl)c(C2CCC(=O)NC2=O)c(C#N)c1)c1ccccc1 (stereo not drawn) [Compound 242, N-(3-chloro-5-cyano-4-(2,6-dioxopiperidin-3-yl)benzyl)-2-methyl-2-phenylpropanamide] | 59 | 50 to 75 | 0.319 | 0.1 to 1 | 6.37 | 6.00 to 7.00 |
| COCCc1cnc(C(C)(C)C(=O)NCc2cc(Cl)c(C3CCC(=O)NC3=O)c(Cl)c2)nc1 (stereo not drawn) [Compound 245, N-(3,5-dichloro-4-(2,6-dioxopiperidin-3-yl)benzyl)-2-(5-(2-methoxyethyl)pyrimidin-2-yl)-2-methylpropanamide] | 48 | ≤ 50 | 0.672 | 0.1 to 1 | 6.80 | 6.00 to 7.00 |
| CC(C)(C(=O)NCc1ccc(C2CCC(=O)NC2=O)c(Cl)c1)c1nc2ccccc2o1 (stereo not drawn) [Compound 246, 2-(benzo[d]oxazol-2-yl)-N-(3-chloro-4-(2,6-dioxopiperidin-3-yl)benzyl)-2-methylpropanamide] | 82 | > 75 | 0.027 | ≤ 0.1 | 6.74 | 6.00 to 7.00 |
| CCc1cnc(C(C)(C)C(=O)NCc2cc(Cl)c(C3CCC(=O)NC3=O)c(Cl)c2)cn1 (stereo not drawn) [Compound 247] | 83 | > 75 | 0.02 | ≤ 0.1 | 6.92 | 6.00 to 7.00 |
| CC(C)(C(=O)NCc1cc(Cl)c(C2CCC(=O)NC2=O)c(Cl)c1)c1cnc(Cl)cn1 (stereo not drawn) [Compound 248] | 95 | > 75 | 0.002 | ≤ 0.1 | 7.15 | ≥ 7.00 |
| CC(C)(C(=O)NCc1cc(F)c(C2CCC(=O)NC2=O)c(Cl)c1)c1nc2ccccc2o1 (stereo not drawn) [Compound 249] | 87 | > 75 | 0.007 | ≤ 0.1 | 7.15 | ≥ 7.00 |
| COc1ccc(C(C)(C)C(=O)NCc2cc(F)c(C3CCC(=O)NC3=O)c(Cl)c2)cn1 (stereo not drawn) [Compound 250] | 96 | > 75 | 0.002 | ≤ 0.1 | 7.15 | ≥ 7.00 |
| COc1cnc(C(C)(C)C(=O)NCc2cc(F)c(C3CCC(=O)NC3=O)c(Cl)c2)cn1 (stereo not drawn) [Compound 251] | 92 | > 75 | 0.004 | ≤ 0.1 | 7.10 | ≥ 7.00 |
| CCOc1cnc(C(C)(C)C(=O)NCc2cc(F)c(C3CCC(=O)NC3=O)c(Cl)c2)cn1 (stereo not drawn) [Compound 252] | 93 | > 75 | 0.003 | ≤ 0.1 | 7.30 | ≥ 7.00 |
| Cc1cnc(C(C)(C)C(=O)NCc2cc(F)c(C3CCC(=O)NC3=O)c(Cl)c2)nc1 (stereo not drawn) [Compound 253] | 45 | ≤ 50 | 0.778 | 0.1 to 1 | 6.85 | 6.00 to 7.00 |
| Cc1coc(C(C)(C)C(=O)NCc2cc(F)c(C3CCC(=O)NC3=O)c(Cl)c2)n1 (stereo not drawn) [Compound 254] | 55 | 50 to 75 | 0.278 | 0.1 to 1 | 6.92 | 6.00 to 7.00 |
| CC(F)(F)c1cnc(C(C)(C)C(=O)NCc2cc(F)c(C3CCC(=O)NC3=O)c(Cl)c2)cn1 (stereo not drawn) [Compound 255] | 54 | 50 to 75 | 0.464 | 0.1 to 1 | 7.05 | ≥ 7.00 |

Other lines, results leading:

| Dmax ([1]; read-out: NEK7 NanoBiT Dmax) [%] | Dmax [1, 3] [%] | DC50 ([1]; read-out: NEK7 NanoBiT DC50) [µM] | DC50 [1, 4] [µM] | pEC50 [2] | pEC50 ([2]; HTRF class, Cereblon binding) | SMILES |
| --- | --- | --- | --- | --- | --- | --- |
| 85 | > 75 | 0.011 | ≤ 0.1 | 7.10 | ≥ 7.00 | COc1cnc(C(C)(C)C(=O)NCc2cc(F)c(C3CCC(=O)NC3=O)c(Cl)c2)nc1 (stereo not drawn) [Compound 256] |
| 95 | > 75 | 0.001 | ≤ 0.1 | 7.30 | ≥ 7.00 | CC(C)(C(=O)NCc1cc(Cl)c(C2CCC(=O)NC2=O)c(Cl)c1)c1cnc(OC(F)F)cn1 (stereo not drawn) [Compound 257] |
| 91 | > 75 | 0.004 | ≤ 0.1 | 7.15 | ≥ 7.00 | CCOc1ccc(C(C)(C)C(=O)NCc2cc(F)c(C3CCC(=O)NC3=O)c(Cl)c2)nn1 (stereo not drawn) [Compound 258] |
| 91 | > 75 | 0.006 | ≤ 0.1 | 7.05 | ≥ 7.00 | CC(C)(C(=O)NCc1cc(Cl)c(C2CCC(=O)NC2=O)c(Cl)c1)c1cnc(OC(F)(F)F)cn1 (stereo not drawn) [Compound 259] |
| 47 | ≤ 50 | 0.48 | 0.1 to 1 | 6.96 | 6.00 to 7.00 | CC(C)(C(=O)NCc1cc(F)c(C2CCC(=O)NC2=O)c(Cl)c1)c1cc(F)ccn1 (stereo not drawn) [Compound 260, N-(3-chloro-4-(2,6-dioxopiperidin-3-yl)-5-fluorobenzyl)-2-(4-fluoropyridin-2-yl)-2-methylpropanamide] |
| 87 | > 75 | 0.012 | ≤ 0.1 | 7.05 | ≥ 7.00 | COc1ccc(C(C)(C)C(=O)NCc2cc(F)c(C3CCC(=O)NC3=O)c(Cl)c2)nc1 (stereo not drawn) [Compound 261] |
| 88 | > 75 | 0.012 | ≤ 0.1 | 7.10 | ≥ 7.00 | COc1ccc(C(C)(C)C(=O)NCc2cc(F)c(C3CCC(=O)NC3=O)c(Cl)c2)nn1 (stereo not drawn) [Compound 262] |
| 90 | > 75 | 0.007 | ≤ 0.1 | 7.00 | 6.00 to 7.00 | CC(F)(F)c1cnc(C(C)(C)C(=O)NCc2cc(Cl)c(C3CCC(=O)NC3=O)c(Cl)c2)cn1 (stereo not drawn) [Compound 263] |
| 68 | 50 to 75 | 0.1 | ≤ 0.1 | 6.89 | 6.00 to 7.00 | CC(C)(C(=O)NCc1cc(F)c(C2CCC(=O)NC2=O)c(Cl)c1)c1cnc(OC(F)(F)F)cn1 (stereo not drawn) [Compound 264] |
| 56 | 50 to 75 | 0.474 | 0.1 to 1 | 7.05 | ≥ 7.00 | CC(C)(C(=O)NCc1cc(Cl)c(C2CCC(=O)NC2=O)c(Cl)c1)C1CCCO1 (stereo not drawn) [Compound 265, N-(3,5-dichloro-4-(2,6-dioxopiperidin-3-yl)benzyl)-2-methyl-2-(tetrahydrofuran-2-yl)propanamide] |
| 82 | > 75 | 0.015 | ≤ 0.1 | 6.92 | 6.00 to 7.00 | CC(C)(C(=O)NCc1cc(Cl)c(C2CCC(=O)NC2=O)c(Cl)c1)c1cn(C(C)(F)F)c(=O)cn1 (stereo not drawn) [Compound 266, N-(3,5-dichloro-4-(2,6-dioxopiperidin-3-yl)benzyl)-2-(4-(1,1-difluoroethyl)-5-oxo-4,5-dihydropyrazin-2-yl)-2-methylpropanamide] |
| 94 | > 75 | 0.003 | ≤ 0.1 | 6.96 | 6.00 to 7.00 | CC(C)(C(=O)NCc1cc(F)c(C2CCC(=O)NC2=O)c(Cl)c1)c1ccc(OC(F)F)nc1 (stereo not drawn) [Compound 267] |
| 88 | > 75 | 0.011 | ≤ 0.1 | 6.92 | 6.00 to 7.00 | COc1conc1C(C)(C)C(=O)NCc1cc(F)c(C2CCC(=O)NC2=O)c(Cl)c1 (stereo not drawn) [Compound 268] |
| 95 | > 75 | 0.001 | ≤ 0.1 | 7.00 | 6.00 to 7.00 | CC(C)(C(=O)NCc1cc(F)c(C2CCC(=O)NC2=O)c(Cl)c1)c1ccc(OCC(F)F)nc1 (stereo not drawn) [Compound 269, N-(3-chloro-4-(2,6-dioxopiperidin-3-yl)-5-fluorobenzyl)-2-(6-(2,2-difluoroethoxy)pyridin-3-yl)-2-methylpropanamide] |
| 72 | 50 to 75 | 0.073 | ≤ 0.1 | 6.72 | 6.00 to 7.00 | Cc1cnc(C(C)(C)C(=O)NCc2cc(F)c(C3CCC(=O)NC3=O)c(Cl)c2)o1 (stereo not drawn) [Compound 270, N-(3-chloro-4-(2,6-dioxopiperidin-3-yl)-5-fluorobenzyl)-2-methyl-2-(5-methyloxazol-2-yl)propanamide] |
| 68 | 50 to 75 | 0.213 | 0.1 to 1 | 6.28 | 6.00 to 7.00 | Cc1cnc(C(C)(C)C(=O)NCc2cc(C)c(C3CCC(=O)NC3=O)c(Cl)c2)nc1 (stereo not drawn) [Compound 271] |
| 57 | 50 to 75 | 0.312 | 0.1 to 1 | 6.64 | 6.00 to 7.00 | CC(C)(C(=O)NCc1cc(F)c(C2CCC(=O)NC2=O)c(Cl)c1)c1ccc(OC(F)(F)F)nn1 (stereo not drawn) [Compound 272] |
